Laboratory results taken from PubChem BioAssay AID1919015 (Molecular Pharmacology Branch, DTP, NCI, 2023).
Where “and” joins values, the source holds several entries; their conditions need not be identical. Identical values can stand only once.

System: OVCAR-5 complex spheroids with HUVEC/MSC, viability, % test/control
Test: Anticancer human tumor OVCAR-5 cell line growth inhibition [AhR];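 further: spheroids exposed to compounds for 7 days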;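 on viability, T/C: 100% = DMSO vehicle control wells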
Conditions: for viability, T/C: stronger effect = lower value
Text: Multicellular complex tumor spheroid response to aryl hydrocarbon receptor antagonists in combination with a variety of drugs and investigational agents in selected tumor cell lines
The current study was undertaken to assess response to aryl hydrocarbon receptor antagonists in combination with standard-of-care drugs and investigational agents in solid tumor complex spheroid models. Complex spheroids include a stromal component modeled by human endothelial cells (HUVEC) and fibroblasts modeled by human mesenchymal stem cells (MSCs). The concentration ranges selected for each drug and investigational agent were based upon clinically achievable concentrations if the clinical Cmax of the agent was known.
Compounds. The drugs and investigational agents: BAY 2416964 (NSC825713), GNF351 (NSC835774), CH-223191 (NSC835775), CPI-455 (NSC825282), aza-TdCyd (NSC777586), decitabine (NSC127716), belinostat (NSC758774), entinostat (NSC756642), pevonedistat (NSC761192), tazemetostat (NSC777109), talazoparib (NSC765396), olaparib (NSC753686), selinexor (NSC780203), nedisertib (M3814, NSC802822), bortezomib (NSC756655), venetoclax (NSC766270), doxorubicin (NSC123127), elimusertib (BAY189344, NSC800525), ceralasertib (AZD6738, NSC777638), TAK-243 (NSC785004), alisertib (NSC759677), etoposide (NSC141540), topotecan (NSC609699), eribulin (NSC707389), gemcitabine (NSC613327), carboplatin (NSC241240), cisplatin (NSC119875), and SN-38 (NSC673596) were obtained from the National Cancer Institute (NCI) Developmental Therapeutics Program Chemical Repository (32). The FDA-approved anticancer drug set is available from the Developmental Therapeutics Program at https://dtp.cancer.gov/organization/dscb/obtaining/available plates.htm. […] The stock solutions were prepared in dimethyl sulfoxide (DMSO, Sigma-Aldrich, St. Louis, MO, cat. D2650), except for the platinum compounds which were prepared in saline (Quality Biological, Gaithersburg, MD, cat. 114-055-101), at 800-fold the tested concentration and stored at -70 degrees C prior to their use. All drugs and investigational agents were tested over a range starting from a high concentration at or near the clinical Cmax and decreasing in half-log increments. If the clinical Cmax for an agent had not been determined, the highest concentration tested was 10 microM (Table 1).
Cell Culture. All cells were maintained in an incubator at 37 degrees C and 5% CO2 with 95% humidity. The PDC lines were cultured according to standard operating procedures established by the NCI PDMR (https://pdmr.cancer.gov). Briefly, all PDCs were thawed and cultured in Matrigel-coated flasks prepared with a working solution of 1X Ham's F-12 nutrient mix, without supplementation (Invitrogen, Waltham, MA, cat. 11765054), 100 U/mL penicillin-streptomycin (Invitrogen, cat. 15140122), and 2.5% Matrigel (Corning Inc., Corning, NY, cat. 354248) for the first three passages. All PDCs were cultured in complete DMEM/F-12 media containing advanced DMEM/F-12 (Invitrogen, cat. 12634028), 4.9% defined fetal bovine serum, heat inactivated (HyClone Laboratories Inc., Logan, UT, cat. SH30070.03HI), 389 ng/mL hydrocortisone (Sigma-Aldrich, cat. H4001), 9.7 ng/mL human EGF recombinant protein (Invitrogen, cat. PHG0313), 23.4 microg/mL adenine (Sigma-Aldrich, cat. A2786), 97.3 U/mL penicillin-streptomycin (Invitrogen, cat. 15140122), 1.9 mM L-glutamine (Invitrogen, cat. 25030081), and 9.7 microM Y-27632 dihydrochloride (Tocris Bioscience, Bristol, United Kingdom, cat. 1254). The PDCs were cultured in complete DMEM/F12 media without 10 microM Y-27632 dihydrochloride for at least two passages prior to the screen. The established cell lines NCI-H1341 and […] were cultured in DMEM/F-12, HEPES (Invitrogen, cat. 11330032), 5% defined fetal bovine serum (HyClone Laboratories Inc., cat. SH30070.03), ITS premix universal culture supplement [insulin (5 microg/mL), transferrin (5 microg/mL), and selenious acid (5 ng/mL)] […]

SMILES: CC(C)CC(NC(=O)C(Cc1ccccc1)NC(=O)c1cnccn1)B(O)O (stereo unspecified)
- viability, T/C (compound 0.000949 µM): 99.2% and 101% and 95.8%
- viability, T/C (compound 0.003 µM): 99.8% and 102% and 100%
- viability, T/C (compound 0.00949 µM): 100% and 96.3% and 85.5%
- viability, T/C (compound 0.03 µM): 78.9% and 69.3% and 39%
- viability, T/C (compound 0.0949 µM): 36% and 27.6% and 18%
- viability, T/C (compound 0.3 µM): 24.7% and 18.1% and 11.4%
- IC50 (curve of compound): 64.9 nM and 51 nM and 23.1 nM

SMILES: CC(C)c1c(-c2ccccc2)nc2c(C#N)c[nH]n2c1=O
- viability, T/C (compound 0.0316 µM): 103% and 100% and 101%
- viability, T/C (compound 0.1 µM): 103% and 99.8% and 106%
- viability, T/C (compound 0.316 µM): 104% and 101% (2×)
- viability, T/C (compound 1 µM): 105% and 104% and 101%
- viability, T/C (compound 3.16 µM): 105% (2×) and 103%
- viability, T/C (compound 10 µM): 109% and 106% (2×)
- IC50 (curve of compound): > 10000 nM

SMILES: CC(CO)NC(=O)c1cc(-c2ccc(Cl)cc2)nn(-c2cnn(C)c2)c1=O (stereo unspecified)
- viability, T/C (compound 0.1 µM): 107% [middle of 20 runs]
- viability, T/C (compound 0.316 µM): 108% [middle of 21 runs]
- viability, T/C (compound 1 µM): 114% [middle of 21 runs]
- viability, T/C (compound 3.16 µM): 103% [middle of 19 runs]
- viability, T/C (compound 10 µM): 98.4% [middle of 19 runs]
- IC50 (compound alone, run of 08/08/2022): > 10000 nM

SMILES: CC1(C)CCC(CN2CCN(c3ccc(C(=O)NS(=O)(=O)c4ccc(NCC5CCOCC5)c([N+](=O)[O-])c4)c(Oc4cnc5[nH]ccc5c4)c3)CC2)=C(c2ccc(Cl)cc2)C1
- viability, T/C (compound 0.0316 µM): 101% and 99.7% and 103%
- viability, T/C (compound 0.1 µM): 99.9% and 101% and 107%
- viability, T/C (compound 0.316 µM): 102% and 97.2% and 103%
- viability, T/C (compound 1 µM): 103% (2×) and 98.7%
- viability, T/C (compound 3.16 µM): 108% and 98.8% and 114%
- viability, T/C (compound 10 µM): 92% and 56.4% and 56%
- IC50 (curve of compound): > 10000 nM

SMILES: CC1COCCN1c1cc(-c2ccnn2C)c2ccnc(-c3ccn[nH]3)c2n1 (stereo unspecified)
- viability, T/C (compound 0.00316 µM): 105% and 103% and 102%
- viability, T/C (compound 0.01 µM): 103% and 101% and 105%
- viability, T/C (compound 0.0316 µM): 102% and 95.4% and 103%
- viability, T/C (compound 0.1 µM): 84.8% and 79.3% and 79.7%
- viability, T/C (compound 0.316 µM): 47.3% and 38.3% and 41.1%
- viability, T/C (compound 1 µM): 30.7% and 25.6% and 26.6%
- IC50 (curve of compound): 290 nM and 229 nM and 240 nM

SMILES: CC1COCCN1c1cc(C2(S(C)(=N)=O)CC2)nc(-c2ccnc3[nH]ccc23)n1 (stereo unspecified)
- viability, T/C (compound 0.0316 µM): 101% and 102% and 99.5%
- viability, T/C (compound 0.1 µM): 101% (2×) and 99.1%
- viability, T/C (compound 0.316 µM): 104% and 102% and 96.8%
- viability, T/C (compound 1 µM): 100% and 97.1% and 98%
- viability, T/C (compound 3.16 µM): 89.4% and 71.8% and 75.2%
- viability, T/C (compound 10 µM): 46.7% and 37% and 41%
- IC50 (curve of compound): 9160 nM and 6500 nM and 7400 nM

SMILES: CCN(c1cc(-c2ccc(CN3CCOCC3)cc2)cc(C(=O)NCc2c(C)cc(C)[nH]c2=O)c1C)C1CCOCC1
- viability, T/C (compound 0.00949 µM): 104% (2×) and 101%
- viability, T/C (compound 0.03 µM): 105% and 98.5% and 106%
- viability, T/C (compound 0.0949 µM): 99.6% and 99.7% and 103%
- viability, T/C (compound 0.3 µM): 101% and 100% and 105%
- viability, T/C (compound 0.949 µM): 99.6% and 96.8% and 104%
- viability, T/C (compound 3 µM): 101% and 96.4% and 104%
- IC50 (curve of compound): > 3000 nM

SMILES: CC[C@@]1(O)C(=O)OCc2c1cc1n(c2=O)Cc2cc3c(CN(C)C)c(O)ccc3nc2-1
- viability, T/C (compound 0.000316 µM): 102% and 99.2% and 104%
- viability, T/C (compound 0.001 µM): 101% and 98.1% and 106%
- viability, T/C (compound 0.00316 µM): 97.5% and 89.9% and 98.5%
- viability, T/C (compound 0.01 µM): 88% and 79.8% and 89.2%
- viability, T/C (compound 0.0316 µM): 57% and 37.1% and 61.3%
- viability, T/C (compound 0.1 µM): 50.6% and 40.1% and 46.5%
- IC50 (curve of compound): > 100 nM and 23 nM and 75.9 nM

SMILES: CCc1c2c(nc3ccc(O)cc13)-c1cc3c(c(=O)n1C2)COC(=O)[C@]3(O)CC
- viability, T/C (compound 0.000949 µM): 90.5% and 88.5% and 79.2%
- viability, T/C (compound 0.003 µM): 69% and 69.4% and 60.1%
- viability, T/C (compound 0.00949 µM): 46% and 36.1% and 40.2%
- viability, T/C (compound 0.03 µM): 45.3% and 36.5% and 41.5%
- viability, T/C (compound 0.0949 µM): 28.9% and 21.7% and 21.8%
- viability, T/C (compound 0.3 µM): 12.1% and 8% and 9.04%
- IC50 (curve of compound): 13 nM and 7.38 nM and 7.51 nM

SMILES: COc1cc(C2c3cc4c(cc3C(OC3OC5COC(C)OC5C(O)C3O)C3COC(=O)C23)OCO4)cc(OC)c1O (stereo unspecified)
- viability, T/C (compound 0.0316 µM): 96.3% and 99.9% and 103%
- viability, T/C (compound 0.1 µM): 98.8% and 99.4% and 103%
- viability, T/C (compound 0.316 µM): 90.1% and 91.7% and 91.1%
- viability, T/C (compound 1 µM): 73.2% and 79.8% and 64.9%
- viability, T/C (compound 3.16 µM): 50% and 52.3% and 41.3%
- viability, T/C (compound 10 µM): 37.2% and 34.4% and 30.3%
- IC50 (curve of compound): 3120 nM and 3790 nM and 2030 nM

SMILES: COc1cc(Nc2ncc3c(n2)-c2ccc(Cl)cc2C(c2c(F)cccc2OC)=NC3)ccc1C(=O)O
- viability, T/C (compound 0.0316 µM): 88% and 84.9% and 84.8%
- viability, T/C (compound 0.1 µM): 79.3% and 80.2% and 76.8%
- viability, T/C (compound 0.316 µM): 61.4% and 57.7% and 55.4%
- viability, T/C (compound 1 µM): 58.3% and 55.7% and 50.5%
- viability, T/C (compound 3.16 µM): 51.2% and 49.3% and 47%
- viability, T/C (compound 10 µM): 42.7% and 41.6% and 39.5%
- IC50 (curve of compound): 2920 nM and 1770 nM and 1250 nM
